Source: publication PMC4762250, “Novel cis-selective and non-epimerisable C3 hydroxy azapodophyllotoxins targeting microtubules in cancer cells” (European Journal of Medicinal Chemistry, 2016)
“Also recorded” adds a separate entry of the source. Where two headings read alike, the source gives them in different places.

Columns and labels:
[1] = tested on: human breast cancer cell line MCF-7; experiment: Oncotest propidium iodide monolayer cell proliferation assay, MCF-7; format: cell-based; settings: mean absolute IC50, 96 h treatment, propidium iodide endpoint, triplicate, read-out: MCF-7 IC50
Protocol: (§1) The anticancer activity of compounds (8a-q) was evaluated using the Oncotest monolayer assay in the human prostate cancer cell line 22Rv1 and the human breast cancer cell line MCF-7, as an outsourced service. […] Antitumour activity was assessed after four days of treatment with the compounds using a propidium iodide based monolayer assay. Potency is expressed as absolute IC50 values, calculated by non-linear regression analysis following testing in triplicate. The seventeen inhibitors were tested at 10 concentrations in half-log increments up to 100 μM in triplicate.
(§2) A modified propidium iodide (PI) based monolayer assay was used to assess the anti-cancer activity of the compounds. Briefly, cells were harvested from exponential phase cultures, counted and plated in 96-well flat-bottom microtiter plates at a cell density of 8.000–12.000 cells/well. After a 24 h recovery period to allow the cells to resume exponential growth, 10 μl of culture medium (six control wells/plate) or culture medium with test compound were added. The compounds were applied in half-log increments at 10 concentrations in triplicate. After a total treatment period of 96 h, cells were washed with 200 μl PBS to remove dead cells and debris. Then, 200 μl of a solution containing 7 μg/mL propidium iodide (PI) was added. After an incubation period of 1–2 h at room temperature, fluorescence (FU) was measured using the EnSpire Multimode Plate Reader (excitation λ = 530 nm, emission λ = 620 nm) to quantify the amount of attached viable cells. IC50 values were calculated by 4-parameter non-linear curve fit using Oncotest Warehouse Software. For calculation of mean IC50 values the geometric mean was used.

[2] = tested on: human prostate cancer cell line 22Rv1; experiment: Oncotest propidium iodide monolayer cell proliferation assay, 22Rv1; format: cell-based; settings: mean absolute IC50, 96 h treatment, propidium iodide endpoint, triplicate
Protocol: as §1, §2

MCF-7 and 22Rv1 = experiment: Oncotest monolayer assay, results stated over both cell lines; format: cell-based, human; settings: for IC50: Homo sapiens; for antiproliferative activity (in words): MCF-7 and 22Rv1
Protocol: as §1, §2

[3] = geometric mean over MCF-7 and 22Rv1, read-out: Mean IC50 values

Structure (SMILES)	IC50 ([1]; Homo sapiens, MCF7, 96 h)	IC50 ([2]; Homo sapiens, 22Rv1, 96 h)	IC50 (MCF-7 and 22Rv1; [3])	antiproliferative activity (in words) (MCF-7 and 22Rv1)	IC50 (MCF-7 and 22Rv1; range or bound over both cell lines MCF-7 and 22Rv1, read-out: IC50 values in the range)	IC50 [1]	IC50 [2]
O=C1OC[C@]2(O)Nc3c(c4cccnc4c4ncccc34)[C@@H](c3ccc(OC(F)(F)F)cc3)[C@@H]12 (mixture of isomers) [Compound 8d, (9aS, 12aR, 13R) and (9aR, 12aS, 13S) 9a-hydroxy-13-(4-(trifluoromethoxy)phenyl)-9a,10,12a,13-tetrahydrofuro[3,4-b]pyrido[3,2-f][1,10]phenanthrolin-12(9H)-one]	424 nM	239 nM	–	–	–	–	–
Cc1ccc(OC(F)(F)F)cc1[C@@H]1c2c(c3cccnc3c3ncccc23)N[C@@]2(O)COC(=O)[C@H]12 (mixture of isomers) [Compound 8m, (9aS, 12aR, 13R) and (9aR, 12aS, 13S) 9a-hydroxy-13-(2-methyl-5-(trifluoromethoxy)phenyl)-9a,10,12a,13-tetrahydrofuro[3,4-b]pyrido[3,2-f][1,10]phenanthrolin-12(9H)-one]	3310 nM	2840 nM	< 10000 nM	–	–	–	–
O=C1OC[C@]2(O)Nc3c(c4cccnc4c4ncccc34)[C@@H](c3cccc(OC(F)(F)F)c3)[C@@H]12 (mixture of isomers) [Compound 8c, (9aS, 12aR, 13R) and (9aR, 12aS, 13S) 9a-hydroxy-13-(3-(trifluoromethoxy)phenyl)-9a,10,12a,13-tetrahydrofuro[3,4-b]pyrido[3,2-f][1,10]phenanthrolin-12(9H)-one]	466 nM	257 nM	–	–	–	–	–
O=C1OC[C@]2(O)Nc3c(c4cccnc4c4ncccc34)[C@@H](c3cccc(S(F)(F)(F)(F)F)c3)[C@@H]12 (mixture of isomers) [Compound 8g, (9aS, 12aR, 13R) and (9aR, 12aS, 13S) 9a-hydroxy-13-(3-(pentafluorosulfanyl)phenyl)-9a,10,12a,13-tetrahydrofuro[3,4-b]pyrido[3,2-f][1,10]phenanthrolin-12(9H)-one]	589 nM	311 nM	< 500 nM	more active than etoposide in both cell lines; also recorded: submicromolar activity	–	–	–
O=C1OC[C@]2(O)Nc3c(c4cccnc4c4ncccc34)[C@@H](c3cccc(C(F)(F)F)c3)[C@@H]12 (mixture of isomers) [Compound 8f, (9aS, 12aR, 13R) and (9aR, 12aS, 13S) 9a-hydroxy-13-(3-(trifluoromethyl)phenyl)-9a,10,12a,13-tetrahydrofuro[3,4-b]pyrido[3,2-f][1,10]phenanthrolin-12(9H)-one]	825 nM	510 nM	500 to 1000 nM	–	–	–	–
COc1cc([C@@H]2c3cc4c(cc3[C@@H](O[C@@H]3O[C@@H]5CO[C@@H](c6cccs6)O[C@H]5[C@H](O)[C@H]3O)[C@H]3COC(=O)[C@H]23)OCO4)cc(OC)c1O [Teniposide, reference compound]	125 nM	82 nM	–	–	80 to 130 nM	–	–
CCOc1ccc([C@@H]2c3c(c4cccnc4c4ncccc34)N[C@@]3(O)COC(=O)[C@H]23)cc1C(F)(F)F (mixture of isomers) [Compound 8k, (9aS, 12aR, 13R) and (9aR, 12aS, 13S) 13-(4-ethoxy-3-(trifluoromethyl)phenyl)-9a-hydroxy-9a,10,12a,13-tetrahydrofuro[3,4-b]pyrido[3,2-f][1,10] phenanthrolin-12(9H)-one]	355 nM	295 nM	< 500 nM	more active than etoposide in both cell lines	–	–	–
COc1cc(OC(F)(F)F)ccc1[C@@H]1c2c(c3cccnc3c3ncccc23)N[C@@]2(O)COC(=O)[C@@H]12 (mixture of isomers) [Compound 8o, (9aS, 12aS, 13S) and (9aR, 12aR, 13R) 9a-hydroxy-13-(2-methoxy-4-(trifluoromethoxy)phenyl)-9a,10,12a,13-tetrahydrofuro[3,4-b]pyrido[3,2-f][1,10]phenanthrolin-12(9H)-one]	396 nM	322 nM	< 500 nM	more active than etoposide in both cell lines	–	–	–
Cc1cc(OC(F)(F)F)cc([C@@H]2c3c(c4cccnc4c4ncccc34)N[C@@]3(O)COC(=O)[C@H]23)c1 (mixture of isomers) [Compound 8h, (9aS, 12aR, 13R) and (9aR, 12aS, 13S) 9a-hydroxy-13-(3-methyl-5-trifluoromethoxyphenyl)-9a,10,12a,13-tetrahydrofuro[3,4-b]pyrido[3,2-f][1,10] phenanthrolin-12(9H)-one]	475 nM	242 nM	< 500 nM	more active than etoposide in both cell lines	–	–	–
O=C1OC[C@]2(O)Nc3c(c4cccnc4c4ncccc34)[C@@H](c3cc(C(F)(F)F)cc(C(F)(F)F)c3)[C@@H]12 (mixture of isomers) [Compound 8j, (9aS, 12aR, 13R) and (9aR, 12aS, 13S) 13-(3,5-bis(trifluoromethyl)phenyl)-9a-hydroxy-9a,10,12a,13-tetrahydrofuro[3,4-b]pyrido[3,2-f][1,10] phenanthrolin-12(9H)-one]	643 nM	380 nM	< 500 nM	submicromolar activity	–	–	–
CSc1ccc([C@@H]2c3c(c4cccnc4c4ncccc34)N[C@@]3(O)COC(=O)[C@H]23)cc1 (mixture of isomers) [Compound 8a, (9aS, 12aR, 13R) and (9aR, 12aS, 13S) 9a-hydroxy-13-(4-(methylthio)phenyl)-9a,10,12a,13-tetrahydrofuro[3,4-b]pyrido[3,2-f][1,10]phenanthrolin-12(9H)-one]	648 nM	855 nM	500 to 1000 nM	–	–	–	–
COc1cc([C@@H]2c3c(c4cccnc4c4ncccc34)N[C@@]3(O)COC(=O)[C@H]23)cc2c1OCO2 (mixture of isomers) [Compound 8p, (9aS, 12aR, 13R) and (9aR, 12aS, 13S) 9a-hydroxy-13-((5-methoxy-3,4-methylenedioxy)phenyl)-9a,10,12a,13-tetrahydrofuro[3,4-b]pyrido[3,2-f][1,10]phenanthrolin-12(9H)-one]	7300 nM	4000 nM	< 10000 nM	–	–	7250 nM	4000 nM
O=C1OC[C@]2(O)Nc3c(c4cccnc4c4ncccc34)[C@@H](c3ccc(SC(F)(F)F)cc3)[C@@H]12 (mixture of isomers) [Compound 8i, (9aS, 12aR, 13R) and (9aR, 12aS, 13S) 9a-hydroxy-13-(4-((trifluoromethyl)thio)phenyl)-9a,10,12a,13-tetrahydrofuro[3,4-b]pyrido [3,2-f][1,10]phenanthrolin-12(9H)-one]	2300 nM	894 nM	< 10000 nM	–	–	–	–
O=C1OC[C@]2(O)Nc3c(c4cccnc4c4ncccc34)[C@@H](c3ccc(OC(F)F)cc3)[C@@H]12 (mixture of isomers) [Compound 8l, (9aS, 12aR, 13R) and (9aR, 12aS, 13S) 13-(4-(difluoromethoxy)phenyl)-9a-hydroxy-9a,10,12a,13-tetrahydrofuro[3,4-b]pyrido[3,2-f][1,10]phenanthrolin-12(9H)-one]	901 nM	719 nM	500 to 1000 nM	–	–	–	–
O=C1OC[C@]2(O)Nc3c(c4cccnc4c4ncccc34)[C@@H](c3ccc4c(c3)OC(F)(F)O4)[C@@H]12 (mixture of isomers) [Compound 8q, (9aS, 12aR, 13R) and (9aR, 12aS, 13S) 13-((3,4-difluoromethylenedioxy)phenyl)-9a-hydroxy-9a,10,12a,13-tetrahydrofuro[3,4-b]pyrido[3,2-f][1,10]phenanthrolin-12(9H)-one]	910 nM	520 nM	500 to 1000 nM	submicromolar activity	–	–	–
O=C1OC[C@]2(O)Nc3c(c4cccnc4c4ncccc34)[C@@H](c3ccc(S(F)(F)(F)(F)F)cc3)[C@@H]12 (mixture of isomers) [Compound 8n, (9aS, 12aR, 13R) and (9aR, 12aS, 13S) 9a-hydroxy-13-(4-(pentafluorosulfanyl)phenyl)-9a,10,12a,13-tetrahydrofuro[3,4-b]pyrido[3,2-f][1,10] phenanthrolin-12(9H)-one]	857 nM	590 nM	500 to 1000 nM	submicromolar activity	–	–	–
